Experimental data reported in PubChem BioAssay (NCI).
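Briefly, cells in 96-well plates were exposed to five compound concentrations for 48 h, and endpoints were estimated by linear interpolation. Definition used: TGI = concentration required for complete inhibition of growth.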

Columns and labels:
Assay in all cases: NCI tumour cell line growth inhibition, 48 h
[1] = tested on: HCT-116 colon
[2] = tested on: UO-31 renal
[3] = tested on: HOP-92 NSCLC
[4] = tested on: RXF 393 renal
[5] = tested on: TK-10 renal
[6] = tested on: ACHN renal
[7] = tested on: NCI-H23 lung
[8] = tested on: CAKI-1 renal
[9] = tested on: 786-0 renal
[10] = tested on: BT-549 breast
[11] = tested on: RPMI-8226 leukemia
[12] = tested on: NCI-H460 lung
[13] = tested on: A549 NSCLC
[14] = tested on: NCI-H226 lung
[15] = tested on: U251 CNS
[16] = tested on: MALME-3M melanoma
[17] = tested on: SK-OV-3 ovarian
[18] = tested on: NCI/ADR-RES ovarian
[19] = tested on: MDA-MB-435
[20] = tested on: SW-620 colon
[21] = tested on: A498 renal
[22] = tested on: OVCAR-5 ovarian
[23] = tested on: SK-MEL-2 melanoma
[24] = tested on: OVCAR-4 ovarian
[25] = tested on: HCT-15 colon
[26] = tested on: HL-60(TB) leukemia
[27] = tested on: PC-3 prostate
[28] = tested on: OVCAR-3 ovarian
[29] = tested on: SF-295 CNS
[30] = tested on: MDA-MB-231 breast
[31] = tested on: M14 melanoma
[32] = tested on: NCI-H522 lung
[33] = tested on: SNB-75 CNS
[34] = tested on: SK-MEL-28 melanoma
[35] = tested on: MDA-N
[36] = tested on: SR leukemia
[37] = tested on: EKVX NSCLC
[38] = tested on: OVCAR-8 ovarian
[39] = tested on: UACC-257 melanoma
[40] = tested on: DU-145 prostate
[41] = tested on: SNB-19 CNS
[42] = tested on: HT29 colon
[43] = tested on: MOLT-4 leukemia
[44] = tested on: CCRF-CEM leukemia
[45] = tested on: HOP-62 NSCLC
[46] = tested on: IGROV1 ovarian
[47] = tested on: T-47D breast
[48] = tested on: LOX IMVI melanoma
[49] = tested on: K-562 leukemia
[50] = tested on: KM12 colon
[51] = tested on: SK-MEL-5 melanoma
[52] = tested on: COLO 205 colon
[53] = tested on: SF-539 CNS
[54] = tested on: SN12C renal
[55] = tested on: SF-268 CNS
[56] = tested on: UACC-62 melanoma

For `O=C(O)c1cccc(SSc2cccc(C(=O)O)c2)c1`, the TGI [1] was greater than 100 µM, the TGI [2] was greater than 100 µM and the TGI [3] was greater than 100 µM. It also gave a TGI [4] greater than 100 µM, a TGI [5] greater than 100 µM and a TGI [6] greater than 100 µM. For the same compound, the TGI [7] was greater than 100 µM, the TGI [8] was greater than 100 µM and the TGI [9] was greater than 100 µM. It also gave a TGI [10] greater than 100 µM, a TGI [11] greater than 100 µM and a TGI [12] greater than 100 µM. For the same compound, the TGI [13] was greater than 100 µM, the TGI [14] was greater than 100 µM and the TGI [15] was greater than 100 µM. The TGI [16] was greater than 100 µM, the TGI [17] was greater than 100 µM and the TGI [18] was greater than 100 µM. It also gave a TGI [19] greater than 100 µM, a TGI [20] greater than 100 µM and a TGI [21] greater than 100 µM. It also gave a TGI [22] greater than 100 µM, a TGI [23] greater than 100 µM and a TGI [24] greater than 100 µM. It also gave a TGI [25] greater than 100 µM, a TGI [26] greater than 100 µM and a TGI [27] greater than 100 µM. For the same compound, the TGI [28] was greater than 100 µM, the TGI [29] was greater than 100 µM and the TGI [30] was greater than 100 µM. It also gave a TGI [31] greater than 100 µM, a TGI [32] greater than 100 µM and a TGI [33] greater than 100 µM. For the same compound, the TGI [34] was greater than 100 µM, the TGI [35] was greater than 100 µM and the TGI [36] was greater than 100 µM. The TGI [37] was greater than 100 µM, the TGI [38] was greater than 100 µM and the TGI [39] was greater than 100 µM. For the same compound, the TGI [40] was greater than 100 µM, the TGI [41] was greater than 100 µM and the TGI [42] was greater than 100 µM. It also gave a TGI [43] greater than 100 µM, a TGI [44] of 81 µM and a TGI [45] greater than 100 µM. For the same compound, the TGI [46] was greater than 100 µM, the TGI [47] was greater than 100 µM and the TGI [48] was greater than 100 µM. It also gave a TGI [49] greater than 100 µM, a TGI [50] greater than 100 µM and a TGI [51] greater than 100 µM. The TGI [52] was greater than 100 µM, the TGI [53] was greater than 100 µM and the TGI [54] was greater than 100 µM. The TGI [55] was greater than 100 µM and the TGI [56] was greater than 100 µM.
